# Measured values reported in US20120329860A1, “Uses of Beta-Nicotinamide Adenine Dinucleotide” (MEDICAL COLLEGE OF GEORGIA INSTITUTE, INC, priority 2010, published 2012).
# How the values were obtained:
# Type in all cases: in vivo
# [1] = system: LPS-induced ALI in mice; experiment: Evans Blue Dye-albumin (EBD) lung permeability
# Description: (§1) Mice were anesthetized with ketamine (150 mg/kg) and acetylpromazine (15 mg/kg) intraperitoneally (i.p.) before the exposure of the trachea via neck incision and intubation with 20-guage catheter and the right internal jugular vein was exposed via right chest incision for PBS or b-NAD installation. The mice were randomly divided into groups. LPS or sterile saline was instilled intratracheally (i.t.) via a 20-gauge catheter. Simultaneously, mice received either b-NAD (5.4 mg/kg, equivalent to final calculated plasma concentration […] or PBS in the control group intravenously (i.v.) through the internal jugular vein (IJ). The animals were allowed to recover for 18 hr. EBD was given through the IJ 2 hr prior to termination of the experiment. At termination, bronchoalveolar lavage (BAL) was collected. BAL was 1ml of 10% HBSS through the endotracheal catheter immediately on sacrifice with aspiration. BAL was immediately centrifuged and processed. After the BAL, ethylenediaminetetraacetic acid (EDTA) was used to flush the lungs of blood via the right heart ventricle and the lungs were then harvested. BAL and lungs were collected and stored at −70° C. for evaluation of lung injury.
# Measurement of EBD concentration in the lungs was performed by injection of EBD (20 mg/kg) into the right internal jugular vein 2 hr before the termination of the experiment to assess the vascular leak. Lungs free of blood were weighed and snap frozen in liquid nitrogen. The left lung was weighed and homogenized, then incubated with two volumes of formamide (18 hr, 60° C.) and centrifuged (5000 g, 30 min, 20° C.). The extravasated EBD concentration (mg/g, lung) in the lung homogenate was calculated against a standard curve. In a separate experiment the EBD was injected into the right internal jugular vein as described above at 2 hrs prior to termination of the experiment and the left lung gross anatomy view was photographed with a Leica NCL150 Camera.
# [2] = system: LPS-induced ALI in mice; experiment: BAL cell count
# Description: as §1, with “injury. […]” for “injury.”
# [3] = system: LPS-induced ALI in mice; experiment: Lung histology (H&E)
# Description: Lungs perfused free of blood after perfusion with EDTA, were immersed in 5% buffered paraformaldehyde for 18 hr at 4° C. prior to histological evaluation by hematoxylin and eosin staining (H&E staining). The right lung lobes were used for consistency. H&E staining was done by deparafinizing and hydrating the slides to water. The slides were stained in Harris Hematoxylin for 15 min and Eosin for 30 sec. The slides were dehydrated, cleared and mounted with cytoseal.
structure (smiles),measurement,setting,value
"NC(=O)C1=CN([C@@H]2O[C@H](COP(=O)(O)OP(=O)(O)OC[C@H]3O[C@@H](n4cnc5c(N)ncnc54)[C@H](O)[C@@H]3O)[C@@H](O)[C@H]2O)C=CC1 [β-NAD, beta-nicotinamide adenine dinucleotide]",EBD leakage into lung parenchyma on gross examination,"[1]; LPS 0.9 mg/kg i.t. and b-NAD 5.46 mg/kg, 24 hr",minimal leakage
same,EBD-albumin in lung (average),[1]; b-NAD/LPS treated mice,10.41 µg/g
same,EBD-albumin in lung (average),[1]; β-NAD/saline control (no LPS),6.54 µg/g
same,total WBCs in BAL fluid,"[2]; LPS treated mice, BAL at 24 hr",reduced total WBCs in BAL fluid
same,neutrophil count of BAL fluid,[2]; LPS/b-NAD compared to LPS only treated mice,decrease in neutrophil count
same,interstitial edema and infiltration of neutrophils (histology),"[3]; LPS/β-NAD vs LPS treated lung, 18 hr",less prominent
same,"lung histology, β-NAD alone","[3]; β-NAD alone, no LPS",no effect
